Test results as given in patent US8153807B2, “Inhibitors of 11-beta-hydroxysteroid dehydrogenase 1” (Eli Lilly and Company, priority 2006, dated 2012).

Columns and labels:
11-βHSD2 enzyme = target: T1, 11-βHSD2 enzyme (Homo sapiens, UniProt P80365); experiment: Selectivity against 11-βHSD2 in an enzyme assay similar to the 11β-HSD type 1 enzyme assay; type: biochemical; conditions: 11-βHSD1 versus 11-βHSD2 enzyme
T1 sequence (P80365 1-405): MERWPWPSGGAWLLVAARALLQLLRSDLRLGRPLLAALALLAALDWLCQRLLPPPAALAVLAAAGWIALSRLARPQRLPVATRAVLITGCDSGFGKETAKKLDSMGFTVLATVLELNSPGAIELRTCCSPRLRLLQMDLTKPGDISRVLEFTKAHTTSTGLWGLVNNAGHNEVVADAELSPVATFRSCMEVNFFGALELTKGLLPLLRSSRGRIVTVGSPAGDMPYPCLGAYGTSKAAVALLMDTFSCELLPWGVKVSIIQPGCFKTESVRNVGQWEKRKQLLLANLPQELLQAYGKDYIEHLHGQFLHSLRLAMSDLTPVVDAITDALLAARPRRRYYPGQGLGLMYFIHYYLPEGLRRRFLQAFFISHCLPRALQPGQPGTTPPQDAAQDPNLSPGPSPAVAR
Description: 11β-HSD Type 1 Enzyme Assay
Human 11β-HSD type 1 activity is measured by assaying NADPH production by fluorescence assay. Solid compounds are dissolved in DMSO to a concentration of 10 mM. Twenty microliters of each are then transferred to a column of a 96-well polypropylene Nunc plate where they are further diluted 50-fold followed by subsequent two-fold titration, ten times across the plate with additional DMSO using a Tecan Genesis 200 automated system. Plates are then transferred to a Tecan Freedom 200 system with an attached Tecan Temo 96-well head and an Ultra 384 plate reader. Reagents are supplied in 96-well polypropylene Nunc plates and are dispensed individually into black 96-well Molecular Devices High Efficiency assay plates (40 μL/well capacity) in the following fashion: 9 μL/well of substrate (2.22 mM NADP, 55.5 μM Cortisol, 10 mM Tris, 0.25% Prionex, 0.1% Triton X100), 3 μL/well of water to compound wells or 3 μL to control and standard wells, 6 μL/well recombinant human 11β-HSD type 1 enzyme, 2 μL/well of compound dilutions. […] Plates are then shaken once more for 15 seconds then placed into an Ultra 384 microplate reader (355EX/460EM) for detection of NADPH fluorescence. […]

cortisone conversion = experiment: Acute in vivo cortisone conversion assay; conditions: Mus musculus; male C57BL/6 mice, oral dose 10 mg/kg, cortisone challenge 16 hours post dose, serum cortisol; read-out: % Inhibition after 16 hours (dose of 10 (mg/kg))
Description: Acute In Vivo Cortisone Conversion Assay
In general, compounds are dosed orally into mice, the mice are challenged with a subcutaneous injection of cortisone at a set timepoint after compound injection, and the blood of each animal is collected some time later. Separated serum is then isolated and analyzed for levels of cortisone and cortisol by LC-MS/MS, followed by calculation of mean cortisol and percent inhibition of each dosing group. Specifically, male C57BL/6 mice are obtained from Harlan Sprague Dawley at average weight of 25 grams. Exact weights are taken upon arrival and the mice randomized into groups of similar weights. Compounds are prepared in 1% w-w HEC, 0.25% w-w polysorbate 80, 0.05% w-w Dow Corning antifoam #1510-US at various doses based on assumed average weight of 25 grams. Compounds are dosed orally, 200 μl per animal, followed by a subcutaneous dose, 200 μl per animal, of 30 mg/kg cortisone at 1 to 24 hours post compound dose. At 10 minutes post cortisone challenge, each animal is euthanized for 1 minute in a CO2 chamber, followed by blood collection via cardiac puncture into serum separator tubes. Once fully clotted, tubes are spun at 2500×g, 4° C. for 15 minutes, the serum transferred to wells of 96-well plates (Corning Inc, Costar #4410, cluster tubes, 1.2 ml, polypropylene), and the plates are frozen at −20° C. until analysis by LC-MS/MS. For analysis, serum samples are thawed and the proteins are precipitated by the addition of acetonitrile containing d4-cortisol internal standard. Samples are vortex mixed and centrifuged. The supernatant is removed and dried under a stream of warm nitrogen. Extracts are reconstituted in methanol/water (1:1) and injected onto the LC-MS/MS system. The levels of cortisone and cortisol are assayed by selective reaction monitoring mode following positive ACPI ionization on a triple quadrupole mass spectrophotometer.

11-β-HSD1 = target: T2, 11-β-HSD1 (Homo sapiens, UniProt P28845); experiment: Human aortic smooth muscle cell assay; type: cell-based; conditions: primary human AoSMC, hTNFα-induced 11-β-HSD1, cortisol immunoassay
T2 construct: assay medium containing 12 ng/mL hTNFα to induce expression of 11-β-HSD1; endogenous in cells; host or cells: primary human aortic smooth muscle cells (AoSMC), induced with hTNFα
T2 sequence (P28845 whole entry): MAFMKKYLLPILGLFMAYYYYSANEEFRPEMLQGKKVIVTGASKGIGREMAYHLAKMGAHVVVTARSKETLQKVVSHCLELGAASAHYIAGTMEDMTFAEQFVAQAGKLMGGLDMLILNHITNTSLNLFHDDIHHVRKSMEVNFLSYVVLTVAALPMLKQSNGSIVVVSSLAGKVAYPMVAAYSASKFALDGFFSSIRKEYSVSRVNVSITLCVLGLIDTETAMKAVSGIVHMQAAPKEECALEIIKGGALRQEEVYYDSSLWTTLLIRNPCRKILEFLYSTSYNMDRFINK
Description: Human Aortic Smooth Muscle Cell Assay
Primary human aortic smooth muscle cells (AoSMC) are cultured in 5% FBS growth medium to a passage number of 6, then pelleted by centrifugation and resuspended at a density of 9×10^4 cells/mL in 0.5% FBS assay medium containing 12 ng/mL hTNFα to induce expression of 11-β-HSD1. Cells are seeded into 96-well tissue culture assay plates at 100 μL/well (9×10^3 cells/well) and incubated for 48 hours at 37° C., 5% CO2. Following induction, cells are incubated for 4 hours at 37° C., 5% CO2 in assay medium containing test compounds then treated with 10 μL/well of 10 μM cortisone solubilized in assay medium, and incubated for 16 hours at 37° C., 5% CO2. Medium from each well is transferred to a plate for subsequent analysis of cortisol using a competitive fluorescence resonance time resolved immunoassay. In solution, an allophycocyanin (APC)-cortisol conjugate and free cortisol analyte compete for binding to a mouse anti-cortisol antibody/Europium (Eu)-anti mouse IgG complex. Higher levels of free cortisol result in diminishing energy transfer from the Europium-IgG to the APC-cortisol complex resulting in less APC fluorescence. Fluorescent intensities for Europium and APC are measured using a LJL Analyst AD. Europium and APC excitation is measured using 360 nm excitation and 615 nm and 650 nm emission filters respectively. Time resolved parameters for Europuium were 1000 μs integration time with a 200 μs delay. APC parameters are set at 150 μs integration time with a 50 μs delay. Fluorescent intensities measured for APC are modified by dividing by the Eu fluorescence (APC/Eu). This ratio is then used to determine the unknown cortisol concentration by interpolation using a cortisol standard curve fitted with a 4-parameter logistic equation. These concentrations are then used to determine compound activity by plotting concentration versus % inhibition, fitting with a 4-parameter curve and reporting the IC50.

fold greater inhibition of 11-βHSD1 enzyme as compared to the inhibition of 11-βHSD2 (11-βHSD2 enzyme) [fold] | IC50 (11-β-HSD1) [nM] | Compound | inhibition at 10 mg/kg (cortisone conversion) [%]
145 | 14.3 | O=C(c1ccc(-c2cc(Cl)c(C[C@@H]3CCN(N4CCC(O)CC4)C3=O)c(Cl)c2)cc1)N1CCC(C(F)(F)F)CC1 [Example 7, (R)-3-[3,5-Dichloro-4′-(4-trifluoromethyl-piperidine-1-carbonyl)-biphenyl-4-ylmethyl]-1-(4-hydroxy-piperidin-1-yl)-pyrrolidin-2-one] | 98
– | 43 | O=C(c1ccc(-c2cc(Cl)c(C[C@@H]3CCN(N4CCC(O)CC4)C3=O)c(Cl)c2)cc1)N1CCC(F)(F)CC1 [Example 8, (R)-3-[3,5-Dichloro-4′-(4,4-difluoro-piperidine-1-carbonyl)-biphenyl-4-ylmethyl]-1-(4-hydroxy-piperidin-1-yl)-pyrrolidin-2-one] | 94
– | 5.7 | O=C1[C@H](Cc2c(Cl)cc(-c3ccc(F)cc3)cc2Cl)CCN1N1CCC(O)CC1 [Example 6, (R)-3-(3,5-Dichloro-4′-fluoro-biphenyl-4-ylmethyl)-1-(4-hydroxy-piperidin-1-yl)-pyrrolidin-2-one Trifluoro Acetate] | 55
– | 67 | O=C(c1ccc(-c2cc(Cl)c(C[C@@H]3CCN(N4CCOCC4)C3=O)c(Cl)c2)cc1)N1CCC(C(F)(F)F)CC1 [Example 3, (R)-3-[3,5-Dichloro-4′-(4-trifluoromethyl-piperidine-1-carbonyl)-biphenyl-4-ylmethyl]-1-morpholin-4-yl-pyrrolidin-2-one] | 82
